Data published in patent US20090075951A1, “Methods and Reagents for the Treatment of Inflammatory Disorders” (CombinatoRx, Inc., priority 2003, published 2009).
Where “and” joins values, the source holds several entries; their conditions need not be identical. Equal entries are not always repeated. Where two headings read alike, the source gives them in different places.

Columns and labels:
cytokine secretion = experiment: Suppression of cytokine secretion in vitro by individual tricyclic compounds
Description: Individual tricyclic compounds were tested for their ability to suppress cytokine secretion in vitro.

[1] = tested on: TNFα secretion from PMA/ionomycin stimulated white blood cells from human buffy coat; experiment: TNFα secretion assay, PMA/ionomycin stimulation; settings: for inhibition at 0.01 µM: read-out: TNFα PI percent inhibition, 0.01 μM
Description: (§1) Various concentrations of each test compound were added at the time of stimulation. […] After the plate was washed with 0.1% Tween 20/PBS, an HRP-luminescent substrate was added to each well and light intensity measured using a LJL Analyst plate luminometer.

[2] = tested on: TNFα secretion from LPS stimulated white blood cells from human buffy coat; experiment: TNFα secretion assay, LPS stimulation; settings: for percent inhibition of TNFα secretion: LPS
Description: as §1

[3] = read-out: IL-1β LPS percent inhibition
[4] = read-out: IL-2 PI percent inhibition
[5] = read-out: TNFα PI percent inhibition, […]
[6] = Homo sapiens, read-out: TNFα LPS percent inhibition, […]
[7] = Amoxapine μM: 32.00, 16.00, 8.00, 4.00, 2.00, 1.00, 0.50, 0.25, 0.13, 0.06, 0.03, 0.02
[8] = Clomipramine μM: 57.00, 28.50, 14.25, 7.13, 3.56, 1.78, 0.89, 0.45, 0.22, 0.11, 0.06, 0.03
[9] = Nortriptyline μM by row r6-r17: 67.00, 33.50, 16.75, 8.38, 4.19, 2.09, 1.05, 0.52, 0.26, 0.13, 0.07, 0.03
[10] = Protriptyline μM by row r6-r17: 67.00, 33.50, 16.75, 8.38, 4.19, 2.09, 1.05, 0.52, 0.26, 0.13, 0.07, 0.03

## CN(C)CCC=C1c2ccccc2CCc2ccccc21 [Amitriptyline, amitriptyline]
Cytokine secretion; [3]
  inhibition at 0.03 µM: 0%
  inhibition at 0.06 µM: 0%
  inhibition at 0.5 µM: 0%
  inhibition at 1 µM: 0%
  inhibition at 2 µM: 0%
  inhibition at 4 µM: 11%
  inhibition at 8 µM: 7%
  inhibition at 16 µM: 0%
  inhibition at 32 µM: 0%
  inhibition at 64 µM: 0%
Cytokine secretion; [4]
  inhibition at 0.03 µM: 0%
  inhibition at 0.06 µM: 2%
  inhibition at 0.5 µM: 0%
  inhibition at 1 µM: 0%
  inhibition at 2 µM: 0%
  inhibition at 4 µM: 4%
  inhibition at 8 µM: 7%
  inhibition at 16 µM: 33%
  inhibition at 32 µM: 62%
  inhibition at 64 µM: 82%
[1]; read-out: TNFα PI percent inhibition, 0.03 μM
  inhibition at 0.03 µM: 0%
[1]; read-out: TNFα PI percent inhibition, 0.06 μM
  inhibition at 0.06 µM: 0%
[1]; read-out: TNFα PI percent inhibition, 0.50 μM
  inhibition at 0.5 µM: 0%
[1]; read-out: TNFα PI percent inhibition, 1.00 μM
  inhibition at 1 µM: 0%
[1]; read-out: TNFα PI percent inhibition, 2.00 μM
  inhibition at 2 µM: 0%
[1]; read-out: TNFα PI percent inhibition, 4.00 μM
  inhibition at 4 µM: 5%
[1]; read-out: TNFα PI percent inhibition, 8.00 μM
  inhibition at 8 µM: 21%
[1]; [5]
  inhibition at 16 µM: 35%
  inhibition at 32 µM: 66%
  inhibition at 64 µM: 81%
[2]; Homo sapiens, read-out: TNFα LPS percent inhibition, 0.03 μM
  inhibition at 0.03 µM: 0%
[2]; Homo sapiens, read-out: TNFα LPS percent inhibition, 0.06 μM
  inhibition at 0.06 µM: 0%
[2]; Homo sapiens, read-out: TNFα LPS percent inhibition, 0.50 μM
  inhibition at 0.5 µM: 0%
[2]; Homo sapiens, read-out: TNFα LPS percent inhibition, 1.00 μM
  inhibition at 1 µM: 0%
[2]; Homo sapiens, read-out: TNFα LPS percent inhibition, 2.00 μM
  inhibition at 2 µM: 0%
[2]; Homo sapiens, read-out: TNFα LPS percent inhibition, 4.00 μM
  inhibition at 4 µM: 0%
[2]; Homo sapiens, read-out: TNFα LPS percent inhibition, 8.00 μM
  inhibition at 8 µM: 0%
[2]; [6]
  inhibition at 16 µM: 0%
  inhibition at 32 µM: 18%
  inhibition at 64 µM: 45%

## Clc1ccc2c(c1)C(N1CCNCC1)=Nc1ccccc1O2 [Amoxapine, amoxapine]
Cytokine secretion; [7]
  IL-1β LPS, percent inhibition relative to untreated controls: 5% and 0%
  IL-2 PI, percent inhibition relative to untreated controls: 0%
  TNFα LPS, percent inhibition relative to untreated controls: 0%
  TNFα PI, percent inhibition relative to untreated controls: 4% and 0%
[2]; Prednisolone 0.5 μM, Amoxapine μM r5-r13: 0,0.25,0.5,1,2,4,8,16,32
  percent inhibition of TNFα secretion: 68.1%

## CN(C)CCCN1c2ccccc2CCc2ccc(Cl)cc21 [Clomipramine, clomipramine]
Cytokine secretion; [8]
  IL-1β LPS, percent inhibition relative to untreated controls: 3% and 0%
  IL-2 PI, percent inhibition relative to untreated controls: 5% and 0%
  TNFα LPS, percent inhibition relative to untreated controls: 0%
  TNFα PI, percent inhibition relative to untreated controls: 0%
[2]; Prednisolone 1 μM, Clomipramine μM r5-r13: 0,0.45,0.89,1.8,3.6,7.1,14,28,57
  percent inhibition of TNFα secretion: 69.3%

## CN1CCN(C2=Nc3cc(F)ccc3Cc3ccccc32)CC1 [Fluperlapine, fluperlapine]
Cytokine secretion; [4]
  inhibition at 0.01 µM: 6%
  inhibition at 0.04 µM: 8%
  inhibition at 0.4 µM: 7%
  inhibition at 32 µM: 1%
[1]
  inhibition at 0.01 µM: 0%
[1]; read-out: TNFα PI percent inhibition, 0.04 μM
  inhibition at 0.04 µM: 0%
[1]; read-out: TNFα PI percent inhibition, 0.40 μM
  inhibition at 0.4 µM: 0%
[1]; [5]
  inhibition at 32 µM: 25%

## Clc1ccc2c(c1)N=C(N1CCNCC1)c1ccccc1N2 [Norclozapine, norclozapine]
[2]; Prednisolone 0 μM, Norclozapine μM r5-r13: 0,0.21,0.41,0.83,1.7,3.3,6.6,13,27
  percent inhibition of TNFα secretion: −17%

## CNCCC=C1c2ccccc2CCc2ccccc21 [Nortriptyline, nortriptyline]
Cytokine secretion; [9]
  IL-1β LPS, percent inhibition relative to untreated controls: 3% and 0%
  IL-2 PI, percent inhibition relative to untreated controls: 0%
  TNFα LPS, percent inhibition relative to untreated controls: 1% and 0%
  TNFα PI, percent inhibition relative to untreated controls: 2%

## CNCCCC1c2ccccc2C=Cc2ccccc21 [Protriptyline, protriptyline]
Cytokine secretion; [10]
  IL-1β LPS, percent inhibition relative to untreated controls: 0%
  IL-2 PI, percent inhibition relative to untreated controls: 0%
  TNFα LPS, percent inhibition relative to untreated controls: 2% and 0%
  TNFα PI, percent inhibition relative to untreated controls: 0%

## OCCOCCN1CCN(C2=Nc3ccccc3Sc3ccccc32)CC1 [Quetiapine fumurate]
Cytokine secretion; [4]
  inhibition at 0.01 µM: 0%
  inhibition at 0.02 µM: 0%
  inhibition at 0.05 µM: 0%
  inhibition at 11 µM: 0%
[1]
  inhibition at 0.01 µM: 7%
[1]; read-out: TNFα PI percent inhibition, 0.02 μM
  inhibition at 0.02 µM: 0%
[1]; read-out: TNFα PI percent inhibition, 0.05 μM
  inhibition at 0.05 µM: 0%
[1]; [5]
  inhibition at 11 µM: 13%

## C[C@]12C=CC(=O)C=C1CC[C@H]1[C@@H]3C[C@@H](O)[C@](O)(C(=O)CO)[C@@]3(C)C[C@H](O)[C@@]12F [Triamcinolone, triamcinolone]
[1]; read-out: inhibition of TNFα secretion, Triamcinolone 38 nM, Desipramine nM: 0, 50, 200, 799, 3197, 13000
  inhibition at […]: 16%
[1]; read-out: inhibition of TNFα secretion, Triamcinolone 38 nM, Imipramine nM: 0, 99, 394, 1578, 6311, 25000
  inhibition at […]: 16.1%
[1]; read-out: inhibition of TNFα secretion, Triamcinolone 38 nM, Nortriptyline nM: 0, 52, 208, 834, 3336, 13000
  inhibition at […]: 7.21%
[1]; read-out: inhibition of TNFα secretion, Triamcinolone 2434 nM, Desipramine nM: 0, 50, 200, 799, 3197, 13000
  inhibition at 2.434 µM: 47.1%
[1]; read-out: inhibition of TNFα secretion, Triamcinolone 2434 nM, Imipramine nM: 0, 99, 394, 1578, 6311, 25000
  inhibition at 2.434 µM: 47.2%
[1]; read-out: inhibition of TNFα secretion, Triamcinolone 2434 nM, Nortriptyline nM: 0, 52, 208, 834, 3336, 13000
  inhibition at 2.434 µM: 33.7%
[1]; read-out: inhibition of TNFα secretion, Triamcinolone 2434 nM, Protriptyline nM: 0, 52, 208, 834, 3336, 13000
  inhibition at 2.434 µM: 48.5%
[1]; read-out: percent inhibition of TNFα secretion, Triamcinolone 38 nM, Amitriptyline nM: 0, 50, 199, 796, 3186, 13000
  inhibition at […]: 10.8%
[1]; read-out: percent inhibition of TNFα secretion, Triamcinolone 38 nM, Amoxapine nM: 0, 12, 50, 199, 797, 3187
  inhibition at […]: 3.52%
[1]; read-out: percent inhibition of TNFα secretion, Triamcinolone 38 nM, Clomipramine nM: 0, 45, 178, 712, 2848, 11000
  inhibition at […]: 12.5%
[1]; read-out: percent inhibition of TNFα secretion, Triamcinolone 2434 nM, Amitriptyline nM: 0, 50, 199, 796, 3186, 13000
  inhibition at 2.434 µM: 43.8%
[1]; read-out: percent inhibition of TNFα secretion, Triamcinolone 2434 nM, Amoxapine nM: 0, 12, 50, 199, 797, 3187
  inhibition at 2.434 µM: 36.1%
[1]; read-out: percent inhibition of TNFα secretion, Triamcinolone 2434 nM, Clomipramine nM: 0, 45, 178, 712, 2848, 11000
  inhibition at 2.434 µM: 46.9%
